Key:
healthy volunteers [1] = conditions: in vivo; cited from earlier work
rodents given MPTP = conditions: cited from earlier work
[2] = pre-clinical studies; cited from earlier work
healthy volunteers [3] = conditions: 71 healthy volunteers; single doses of 10 mg/kg or 7 days of repeated doses of 5 mg/kg/day; cited from earlier work
[4] = test system: animal model of wearing off; conditions: response diminished after 28 days continuous L-dopa treatment; cited from earlier work
primates = conditions: after 12 week daily administration; cited from earlier work
MAO-B = conditions: cited from earlier work
[5] = test system: patients affected by idiopathic early Parkinson's disease; assay: Phase II dose finding, double-blind, placebo controlled 12-week study: safety (adverse events, vital signs, ECG, laboratory); conditions: for related adverse events: placebo 25.0%; for percentage of patients with adverse events: placebo 50.0%
Protocol: Safety was monitored by adverse events, vital signs, 12-lead ECG and clinical laboratory variables.
Patients were assigned to the study treatment group as randomized.
The analyses based on the safety cohort were performed for the safety parameters, demographic data and the most important baseline characteristics which were defined in the analysis plan.
Incidences of adverse events were calculated overall, by body system and by preferred term. Vital sign measurements at baseline (Visit 2) were compared to further visits using the Kruskal-Wallis test. All other safety variables were analysed descriptively.

[6] = test system: patients affected by idiopathic early Parkinson's disease; assay: Phase II dose finding, double-blind, placebo controlled 12-week study: efficacy (UPDRS section III responder rate, CGI); assay type: in vivo, human; conditions: for Non Responders, % / Responders, % / Responder rate (improvement of at least 30% in UPDRS section III): final visit; for Responder rate at final visit, %: 12 weeks, ITT cohort, versus placebo 21.4%
Excerpt: Mode of administration was oral, once daily; and duration of treatment was 12 weeks. The primary efficacy variable in this study was the proportion of patients considered to have achieved a response defined as an improvement of at least 30% in the unified Parkinson's disease ratings scale (UPDRS) section III score between baseline (Visit 2) and the end of the study (Visit 9 or early study termination).
The intent-to-treat (ITT) cohort was defined as all randomized patients who received at least one dose of study medication and for whom at least one UPDRS section III assessment after treatment was available.
The analysis based on the ITT Cohort was considered a primary analysis and was performed for all parameters except safety parameters.
The per-protocol (PP) cohort was defined as all patients who completed the study without major protocol violations. Minor violations not leading to exclusion from the PP cohort were defined during a blind review meeting after data cleaning. Drop-outs due to lack of efficacy and due to adverse events were not excluded from the PP cohort.
The primary efficacy variable was the percentage of patients with an improvement of at least 30% in the UPDRS section III score between baseline (Visit 2) and the end of the study (Visit 9 or early study termination). Comparison between the treatment groups was performed in the ITT analysis cohort (primary analysis) using a logistic regression model taking into account UPDRS section III score at baseline, the patient's treatment history (de-novo, single dopamine agonist alone, single dopamine agonists with a prior Parkinson's disease treatment) and the country.
The percentage of patients with an improvement of at least 30% in the UPDRS section III score at Visits 5 and 7 was analyzed using the same methods as for the primary efficacy variable.

[7] = De Novo subgroup (N = 66), Safinamide 0.5 mg/kg
[8] = De Novo subgroup (N = 66), Safinamide 1.0 mg/kg

**Q.** Which “amount of i.v. tyramine to raise BP by 30 mm Hg, compared to placebo (cheese effect)” value (healthy volunteers [1]) does the source give for C[C@H](NCc1ccc(OCc2cccc(F)c2)cc1)C(N)=O [Safinamide, (+)-(S)-2-[[p-[(m-fluorobenzyl)oxy]-benzyl]amino]propionamide] here?
**A.** Its value is “equal or greater amount of i.v. tyramine was required”.

**Q.** And the nigral neuronal death (rodents given MPTP; given 4 h after the toxin (MPTP) administration)?
**A.** The nigral neuronal death was “capable of preventing nigral neuronal death”.

**Q.** And the neostriatal dopamine depletion (rodents given MPTP; given prior to the administration of MPTP)?
**A.** Its neostriatal dopamine depletion is “prevented neostriatal dopamine depletion”.

**Q.** And the anticonvulsant activity [2]?
**A.** Its anticonvulsant activity is “broad spectrum of anticonvulsant activity”.

**Q.** What about the side effects (healthy volunteers [3]) of the same molecule?
**A.** Its side effects is “did not produce any clinically relevant side effect”.

**Q.** What about the “motor effect in response to L-dopa” value [4] of the same molecule?
**A.** Its value is “restores the efficacy and duration of the motor effect”.

**Q.** What about the neostriatal dopamine (primates) of the same molecule?
**A.** Its neostriatal dopamine is “significant increase of neostriatal dopamine with increased turnover”.

**Q.** What about the “inhibition of MAO-B activity” value (MAO-B) of the same molecule?
**A.** Its value is “potent, reversible inhibitor”.

**Q.** What about the “overall safety (other vital signs, ECG recordings, laboratory parameters)” value ([5]; 0.5 and 1.0 mg/kg, 12 weeks) of the same molecule?
**A.** Its value is “no safety concerns were raised”.

**Q.** And the “mean heart rate, change from baseline to the final visit” value ([5]; other treatment groups (safinamide 0.5 mg/kg, placebo))?
**A.** The value was “a decrease was observed”.

**Q.** And the “tremor aggravated (nervous system disorders, most frequent adverse event)” value ([5]; safinamide 0.5 mg/kg group)?
**A.** Its value is 3.6 % of patients.

**Q.** And the “patients who experienced serious adverse events” value ([5]; safinamide 0.5 mg/kg group (atrial fibrillation, pregnancy), unlikely related or not related)?
**A.** The value was “Two”.

**Q.** What about the related adverse events ([5]; safinamide 0.5 mg/kg group) of the same molecule?
**A.** Its related adverse events is 12.5 % of patients.

**Q.** What about the “percentage of patients with adverse events” value ([5]; safinamide 0.5 mg/kg group) of the same molecule?
**A.** Its value is 37.5 % of patients.

**Q.** And the “nausea (gastrointestinal system disorders, most frequent adverse event)” value ([5]; safinamide 1.0 mg/kg group)?
**A.** The value was 3.6 % of patients.

**Q.** What about the “patients who experienced serious adverse events” value ([5]; safinamide 1.0 mg/kg group (myasthenia gravis), not related) of the same molecule?
**A.** Its value is “one”.

**Q.** What about the “mean heart rate, change from baseline to the final visit” value ([5]; safinamide 1.0 mg/kg group, p=0.037, Kruskal-Wallis test) of the same molecule?
**A.** The value was “increased”.

**Q.** What about the related adverse events ([5]; safinamide 1.0 mg/kg group) of the same molecule?
**A.** The related adverse events was 10.7 % of patients.

**Q.** What about the “percentage of patients with adverse events” value ([5]; safinamide 1.0 mg/kg group) of the same molecule?
**A.** Its value is 32.1 % of patients.

**Q.** What about the deaths ([5]; whole study, 0.5 and 1.0 mg/kg groups) of the same molecule?
**A.** Its deaths is “No deaths were reported”.

**Q.** What about the “Non Responders, %” value [6, 7] of the same molecule?
**A.** The value was 77.3%.

**Q.** And the “Responders, %” value [6, 7]?
**A.** Its value is 22.7%.

**Q.** What about the “Non Responders, %” value [6, 8] of the same molecule?
**A.** The value was 77.3%.

**Q.** And the “Responders, %” value [6, 8]?
**A.** Its value is 22.7%.

**Q.** And the “Responder rate at final visit, %” value ([6]; Safinamide 0.5 mg/kg oral once daily, group N = 55, p 0.132)?
**A.** Its value is 30.9%.

**Q.** What about the “Responder rate at final visit, %” value ([6]; Safinamide 1.0 mg/kg oral once daily, group N = 56, p 0.016) of the same molecule?
**A.** Its value is 37.5%.

**Q.** What about the “Non Responders, %” value ([6]; Single DA subgroup (N = 101), Safinamide 0.5 mg/kg add-on) of the same molecule?
**A.** The value was 63.6%.

**Q.** And the “Non Responders, %” value ([6]; Single DA subgroup (N = 101), Safinamide 1.0 mg/kg add-on)?
**A.** Its value is 52.9%.

**Q.** And the “Responders, %” value ([6]; Single DA subgroup (N = 101; stable dopamine agonist treatment), Safinamide 0.5 mg/kg add-on, placebo 20.6%)?
**A.** The value was 36.4%.

**Q.** And the “Responders, %” value ([6]; Single DA subgroup (N = 101; stable dopamine agonist treatment), Safinamide 1.0 mg/kg add-on, placebo 20.6%, P = 0.024)?
**A.** Its value is 47.1%.

**Q.** And the “Responder rate (improvement of at least 30% in UPDRS section III)” value ([6]; patients who received a single dopamine agonist alone, 0.5 mg safinamide, placebo 25.0%)?
**A.** The value was 33.3%.

**Q.** What about the “Responder rate (improvement of at least 30% in UPDRS section III)” value ([6]; patients who received a single dopamine agonist alone, 1.0 mg safinamide, placebo 25.0%) of the same molecule?
**A.** Its value is 50.0%.

**Q.** And the “Responder rate (improvement of at least 30% in UPDRS section III)” value ([6]; patients with a dopamine agonist with a prior Parkinson's disease treatment, 0.5 mg safinamide, placebo 14.3%)?
**A.** Its value is 40.0%.

**Q.** What about the “Responder rate (improvement of at least 30% in UPDRS section III)” value ([6]; patients with a dopamine agonist with a prior Parkinson's disease treatment, 1.0 mg safinamide, placebo 14.3%) of the same molecule?
**A.** The value was 43.8%.

**Q.** And the “changes in CGI part I between baseline (Visit 2) and Visit 6” value ([6]; safinamide 0.5 mg/kg group versus other groups, p=0.049, Fisher's exact test)?
**A.** Its value is “better outcome”.

**Q.** What about the “average improvement of patients” value ([6]; safinamide added to a stabilized dose of a variety of dopamine agonists) of the same molecule?
**A.** Its value is 27.8%.

**Q.** What about the “average improvement of patients” value ([6]; safinamide administered alone) of the same molecule?
**A.** The value was 6.9%.
